Source: patent US20250059198A1, “BRM DEGRADING COMPOUNDS AND ASSOCIATED METHODS OF USE” (Arvinas Operations, Inc., priority 2021, published 2025)

Target: T1, BRM (Homo sapiens, UniProt P51531)
T1 construct: Western Blot Screen of BRM Degradation in SW1573 Cells; endogenous in cells; host or cells: SW1573 cells
Test: BRM degradation (Dmax and DC50) in SW1573 cells, Western blot screen / In-Cell Western screen
Type: cell-based
Conditions: overnight (18-20 hours) treatment; for Dmax: read-out: Dmax (%)** (% degraded)
Method in brief: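 Dmax and DC50 were derived from BRM levels normalised to an alpha-tubulin control, measured by chemiluminescent Western blotting of lysates or by PFA-fixed In-Cell Western on LI-COR Odyssey. SW1573 cells received compound overnight (18–20 h, 0.1% DMSO final).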

T1 sequence (P51531 whole entry): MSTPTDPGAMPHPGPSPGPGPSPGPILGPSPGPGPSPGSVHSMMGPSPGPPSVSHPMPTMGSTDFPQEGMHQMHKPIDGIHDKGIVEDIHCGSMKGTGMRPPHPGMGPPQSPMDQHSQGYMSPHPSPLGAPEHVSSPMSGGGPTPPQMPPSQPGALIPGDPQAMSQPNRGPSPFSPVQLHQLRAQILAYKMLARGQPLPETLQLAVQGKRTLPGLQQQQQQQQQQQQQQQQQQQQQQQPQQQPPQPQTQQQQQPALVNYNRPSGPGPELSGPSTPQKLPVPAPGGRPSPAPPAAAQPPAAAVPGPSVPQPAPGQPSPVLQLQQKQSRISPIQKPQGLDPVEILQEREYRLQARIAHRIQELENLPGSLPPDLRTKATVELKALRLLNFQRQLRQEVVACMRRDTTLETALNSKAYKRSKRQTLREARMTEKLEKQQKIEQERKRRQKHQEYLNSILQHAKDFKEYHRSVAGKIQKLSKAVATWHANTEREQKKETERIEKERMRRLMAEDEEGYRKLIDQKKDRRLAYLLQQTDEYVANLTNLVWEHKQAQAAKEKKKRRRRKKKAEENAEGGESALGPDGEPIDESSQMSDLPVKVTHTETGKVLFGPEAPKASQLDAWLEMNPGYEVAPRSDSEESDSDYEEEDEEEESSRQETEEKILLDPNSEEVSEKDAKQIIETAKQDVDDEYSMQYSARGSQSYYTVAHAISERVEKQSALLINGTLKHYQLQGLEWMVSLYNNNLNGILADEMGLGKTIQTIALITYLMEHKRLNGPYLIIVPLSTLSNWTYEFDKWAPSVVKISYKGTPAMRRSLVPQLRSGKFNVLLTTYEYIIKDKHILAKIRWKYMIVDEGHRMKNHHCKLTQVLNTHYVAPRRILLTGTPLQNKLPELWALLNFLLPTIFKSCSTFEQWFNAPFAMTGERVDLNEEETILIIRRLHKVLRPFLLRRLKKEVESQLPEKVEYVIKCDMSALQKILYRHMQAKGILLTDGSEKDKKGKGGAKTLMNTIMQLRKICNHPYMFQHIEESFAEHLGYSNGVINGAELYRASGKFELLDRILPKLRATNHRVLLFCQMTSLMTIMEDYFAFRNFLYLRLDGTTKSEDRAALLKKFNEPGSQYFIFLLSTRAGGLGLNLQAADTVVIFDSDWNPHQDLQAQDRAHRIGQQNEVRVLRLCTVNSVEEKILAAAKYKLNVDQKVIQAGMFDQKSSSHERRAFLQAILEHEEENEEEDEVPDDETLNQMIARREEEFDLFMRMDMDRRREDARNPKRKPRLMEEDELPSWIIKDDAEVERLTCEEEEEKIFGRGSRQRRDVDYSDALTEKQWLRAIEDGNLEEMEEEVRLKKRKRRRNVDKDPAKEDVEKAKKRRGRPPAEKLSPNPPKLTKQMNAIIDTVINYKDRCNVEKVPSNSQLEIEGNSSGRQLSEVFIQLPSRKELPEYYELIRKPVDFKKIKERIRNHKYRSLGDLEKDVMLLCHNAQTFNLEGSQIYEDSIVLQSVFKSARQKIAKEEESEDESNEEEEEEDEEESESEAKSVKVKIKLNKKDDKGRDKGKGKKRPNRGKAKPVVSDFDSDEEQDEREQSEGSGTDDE

| Compound | DC50 [nM] | Dmax [%] |
| --- | --- | --- |
| Cc1ncsc1-c1ccc([C@H](C)NC(=O)[C@@H]2C[C@@H](O)CN2C(=O)[C@@H](c2cc(N3CCC(CN4CCC(O[C@H]5C[C@H](CN6CCC(N7C8CCC7CN(c7cc(-c9ccccc9O)nnc7N)C8)CC6)C5)CC4)CC3)no2)C(C)C)cc1 [Compound 24, (2S,4R)-4-hydroxy-N-[(1S)-1-[4-(4-methyl-1,3-thiazol-5-yl)phenyl]ethyl]-1-[(2R)-3-methyl-2-{3-[4-({4-[(1r,3r)-3-[(4-{3-[3-amino-6-(2-hydroxyphenyl)pyridazin-4-yl]-3,8-diazabicyclo[3.2.1]octan-8-yl}piperidin-1-yl)methyl]cyclobutoxy]piperidin-1-yl}methyl)piperidin-1-yl]-1,2-oxazol-5-yl}butanoyl]pyrrolidine-2-carboxamide] | < 2.5 | > 75 |
| Cc1ncsc1-c1ccc([C@H](C)NC(=O)[C@@H]2C[C@@H](O)CN2C(=O)[C@@H](c2cc(N3CCC(CN4CCC(O[C@H]5C[C@H](N6CCC(C(=O)N7C8CCC7CN(c7cc(-c9ccccc9O)nnc7N)C8)CC6)C5)CC4)CC3)no2)C(C)C)cc1 [Compound 25, (2S,4R)-4-hydroxy-N-[(1S)-1-[4-(4-methyl-1,3-thiazol-5-yl)phenyl]ethyl]-1-[(2R)-3-methyl-2-{3-[4-({4-[(1r,3r)-3-(4-{3-[3-amino-6-(2-hydroxyphenyl)pyridazin-4-yl]-3,8-diazabicyclo[3.2.1]octane-8-carbonyl}piperidin-1-yl)cyclobutoxy]piperidin-1-yl}methyl)piperidin-1-yl]-1,2-oxazol-5-yl}butanoyl]pyrrolidine-2-carboxamide] | < 2.5 | > 75 |
| CC(C)[C@@H](C(=O)N1C[C@H](O)C[C@H]1C(=O)N[C@@H](C)c1ccc(C#N)cc1)c1cc(N2CCC(CN3CCC(O[C@H]4C[C@H](Oc5cc(N6CC7CC(C6)N7c6cc(-c7ccccc7O)nnc6N)ccn5)C4)CC3)CC2)no1 [Compound 26, (2S,4R)-N-[(1S)-1-(4-cyanophenyl)ethyl]-4-hydroxy-1-[(2R)-3-methyl-2-{3-[4-({4-[(1r,3r)-3-[(4-{6-[3-amino-6-(2-hydroxyphenyl)pyridazin-4-yl]-3,6-diazabicyclo[3.1.1]heptan-3-yl}pyridin-2-yl)oxy]cyclobutoxy]piperidin-1-yl}methyl)piperidin-1-yl]-1,2-oxazol-5-yl}butanoyl]pyrrolidine-2-carboxamide] | 2.5 to 10 | > 75 |
| Cc1ncsc1-c1ccc([C@H](C)NC(=O)[C@@H]2C[C@@H](O)CN2C(=O)[C@@H](c2cc(N3CCC(CN4CCC(O[C@H]5C[C@H](N6CCC(F)(CN7C8CCC7CN(c7cc(-c9ccccc9O)nnc7N)C8)CC6)C5)CC4)CC3)no2)C(C)C)cc1 [Compound 27, (2S,4R)-4-hydroxy-N-[(1S)-1-[4-(4-methyl-1,3-thiazol-5-yl)phenyl]ethyl]-1-[(2R)-3-methyl-2-{3-[4-({4-[(1r,3r)-3-[4-({3-[3-amino-6-(2-hydroxyphenyl)pyridazin-4-yl]-3,8-diazabicyclo[3.2.1]octan-8-yl}methyl)-4-fluoropiperidin-1-yl]cyclobutoxy]piperidin-1-yl}methyl)piperidin-1-yl]-1,2-oxazol-5-yl}butanoyl]pyrrolidine-2-carboxamide] | < 2.5 | > 75 |
| CC(C)[C@@H](C(=O)N1C[C@H](O)C[C@H]1C(=O)N[C@@H](C)c1ccc(-c2ccnn2C)cc1)c1cc(N2CCC(CN3CCC(O[C@H]4C[C@H](N5CCOC6(CCN(c7cc(-c8ccccc8O)nnc7N)CC6)C5)C4)CC3)CC2)no1 [Compound 28, (2S,4R)-4-hydroxy-N-[(1S)-1-[4-(1-methyl-1H-pyrazol-5-yl)phenyl]ethyl]-1-[(2R)-3-methyl-2-{3-[4-({4-[(1r,3r)-3-{9-[3-amino-6-(2-hydroxyphenyl)pyridazin-4-yl]-1-oxa-4,9-diazaspiro[5.5]undecan-4-yl}cyclobutoxy]piperidin-1-yl}methyl)piperidin-1-yl]-1,2-oxazol-5-yl}butanoyl]pyrrolidine-2-carboxamide] | < 2.5 | > 75 |
| Cc1ncsc1-c1ccc([C@H](C)NC(=O)[C@@H]2C[C@@H](O)CN2C(=O)[C@@H](c2cc(N3CCC(CN4CCC5(CC4)CC(Oc4cc(N6C7CCC6CN(c6cc(-c8ccccc8O)nnc6N)C7)ccn4)C5)CC3)no2)C(C)C)cc1 [Compound 29, (2S,4R)-1-[(2R)-2-{3-[4-({2-[(4-{3-[3-amino-6-(2-hydroxyphenyl)pyridazin-4-yl]-3,8-diazabicyclo[3.2.1]octan-8-yl}pyridin-2-yl)oxy]-7-azaspiro[3.5]nonan-7-yl}methyl)piperidin-1-yl]-1,2-oxazol-5-yl}-3-methylbutanoyl]-4-hydroxy-N-[(1S)-1-[4-(4-methyl-1,3-thiazol-5-yl)phenyl]ethyl]pyrrolidine-2-carboxamide] | < 2.5 | > 75 |
| CC(C)[C@@H](C(=O)N1C[C@H](O)C[C@H]1C(=O)N[C@@H](C)c1ccc(-c2ccnn2C)cc1)c1cc(N2CCC(CN3CCC(O[C@H]4C[C@H](Oc5cc(/C=C/c6cc(-c7ccccc7O)nnc6N)ccn5)C4)CC3)CC2)no1 [Compound 30, (2S,4R)-4-hydroxy-N-[(1S)-1-[4-(1-methyl-1H-pyrazol-5-yl)phenyl]ethyl]-1-[(2R)-3-methyl-2-{3-[4-({4-[(1r,3r)-3-({4-[(1E)-2-[3-amino-6-(2-hydroxyphenyl)pyridazin-4-yl]ethenyl]pyridin-2-yl}oxy)cyclobutoxy]piperidin-1-yl}methyl)piperidin-1-yl]-1,2-oxazol-5-yl}butanoyl]pyrrolidine-2-carboxamide] | < 2.5 | > 75 |
| Cc1ncsc1-c1ccc([C@H](C)NC(=O)[C@@H]2C[C@@H](O)CN2C(=O)[C@@H](c2cc(N3CCC(CN4CCC(CN5CCC6(CC5)CC(N5CCC(C(C)n7cc(-c8cc(-c9ccccc9O)nnc8N)cn7)CC5)C6)CC4)CC3)no2)C(C)C)cc1 (stereo partly drawn) [Compound 31, (2S,4R)-1-[(2R)-2-[3-(4-{[4-({2-[4-(1-{4-[3-amino-6-(2-hydroxyphenyl)pyridazin-4-yl]-1H-pyrazol-1-yl}ethyl)piperidin-1-yl]-7-azaspiro[3.5]nonan-7-yl}methyl)piperidin-1-yl]methyl}piperidin-1-yl)-1,2-oxazol-5-yl]-3-methylbutanoyl]-4-hydroxy-N-[(1S)-1-[4-(4-methyl-1,3-thiazol-5-yl)phenyl]ethyl]pyrrolidine-2-carboxamide] | < 2.5 | > 75 |
| Cc1ncsc1-c1ccc([C@H](C)NC(=O)[C@@H]2C[C@@H](O)CN2C(=O)[C@@H](c2cc(N3CCC(CN4CCC5(CC4)CC(CN4CCC(Oc6cc(N7C8CCC7CN(c7cc(-c9ccccc9O)nnc7N)C8)ccn6)CC4)C5)CC3)no2)C(C)C)cc1 [Compound 32, (2S,4R)-1-[(2R)-2-[3-(4-{[2-({4-[(4-{3-[3-amino-6-(2-hydroxyphenyl)pyridazin-4-yl]-3,8-diazabicyclo[3.2.1]octan-8-yl}pyridin-2-yl)oxy]piperidin-1-yl}methyl)-7-azaspiro[3.5]nonan-7-yl]methyl}piperidin-1-yl)-1,2-oxazol-5-yl]-3-methylbutanoyl]-4-hydroxy-N-[(1S)-1-[4-(4-methyl-1,3-thiazol-5-yl)phenyl]ethyl]pyrrolidine-2-carboxamide] | < 2.5 | > 75 |
| CC(C)[C@H](C(=O)N1C[C@H](O)C[C@H]1C(=O)N[C@@H](C)c1ccc(-c2ccnn2C)cc1)c1cc(N2CCC(CN3CCC(CN4CCC5(CC4)CC(Oc4cc(N6C7CCC6CN(c6cc(-c8ccccc8O)nnc6N)C7)ccn4)C5)CC3)CC2)no1 [Compound 33, (2S,4R)-1-[(2S)-2-[3-(4-{[4-({2-[(4-{3-[3-amino-6-(2-hydroxyphenyl)pyridazin-4-yl]-3,8-diazabicyclo[3.2.1]octan-8-yl}pyridin-2-yl)oxy]-7-azaspiro[3.5]nonan-7-yl}methyl)piperidin-1-yl]methyl}piperidin-1-yl)-1,2-oxazol-5-yl]-3-methylbutanoyl]-4-hydroxy-N-[(1S)-1-[4-(1-methyl-1H-pyrazol-5-yl)phenyl]ethyl]pyrrolidine-2-carboxamide] | 10 to 30 | > 75 |
| CC(C)C(C(=O)N1C[C@H](O)C[C@H]1C(=O)N[C@@H](C)c1ccc(-c2ccnn2C)cc1)c1cc(OCC#Cc2ncc(O[C@H]3C[C@H](Oc4cc(N5CCN(c6cc(-c7ccccc7O)nnc6N)CC5)ccn4)C3)cn2)no1 (stereo partly drawn) [Compound 34, (2S,4R)-4-hydroxy-N-[(1S)-1-[4-(1-methyl-1H-pyrazol-5-yl)phenyl]ethyl]-1-(3-methyl-2-{3-[(3-{5-[(1r,3r)-3-[(4-{4-[3-amino-6-(2-hydroxyphenyl)pyridazin-4-yl]piperazin-1-yl}pyridin-2-yl)oxy]cyclobutoxy]pyrimidin-2-yl}prop-2-yn-1-yl)oxy]-1,2-oxazol-5-yl}butanoyl)pyrrolidine-2-carboxamide] | < 2.5 | > 75 |
| Cc1ncsc1-c1ccc([C@H](C)NC(=O)[C@@H]2C[C@@H](O)CN2C(=O)[C@@H](c2cc(N3CCC(CN4CCC5(CC4)CC(N4CCO[C@H](CN6C7CCC6CN(c6cc(-c8ccccc8O)nnc6N)C7)C4)C5)CC3)no2)C(C)C)cc1 [Compound 35, (2S,4R)-1-[(2R)-2-{3-[4-({2-[(2S)-2-({3-[3-amino-6-(2-hydroxyphenyl)pyridazin-4-yl]-3,8-diazabicyclo[3.2.1]octan-8-yl}methyl)morpholin-4-yl]-7-azaspiro[3.5]nonan-7-yl}methyl)piperidin-1-yl]-1,2-oxazol-5-yl}-3-methylbutanoyl]-4-hydroxy-N-[(1S)-1-[4-(4-methyl-1,3-thiazol-5-yl)phenyl]ethyl]pyrrolidine-2-carboxamide] | < 2.5 | > 75 |
